Several values for one entry are separate records, joined by “and”; a condition that tells them apart may be missing. Equal values may be shown once. Read-outs that look alike come from different tables or passages of the source. Peptide text beside a SMILES is read from it.
Target: T1, streptavidin (Streptomyces avidinii, UniProt P22629)
T1 construct: purchased New England Biolabs
Test: biochemical
Type: binding
Settings: for more active than linear counterpart: ratio of KD, bicycle vs linear peptide
Protocol: SPR measurements were performed with 20 mM HEPES–KOH pH 7.4, 150 mM NaCl, 0.5 mM TCEP, 0.05% (v/v) polysorbate 20 as running buffer. For each experiment, 100–150 μg streptavidin in 10 mM sodium acetate pH 3.9 buffer was freshly immobilised on a sensor chip flow-cell using EDC/NHS chemistry at 25 °C in absence of TCEP. All binding experiments were conducted at 20 °C in single-cycle kinetics mode (Fig. 4, Supplementary Figs. 17, 18, Supplementary Data 2).
SPR experiments were performed on a Biacore 8K (Cytiva, USA) using a CM5 chip (Cytiva, 29104988, USA), onto which streptavidin (New England Biolabs, USA) was freshly immobilised using an amine coupling kit (Cytiva, USA) for each individual experiment. The instrument was operated using Biacore Insight 5 software (Cytiva, USA). The data were plotted and analysed in GraphPad Prism 10 (Dotmatics, USA) using the non-linear fit ‘one site – specific binding’ (Supplementary Equation 2). KD values of duplicate measurements are represented as the mean value ± standard deviation.
Supplementary Equation 2.
X = analyte concentration [µM]
RUmax = maximum response [RU]
KD = dissociation constant [µM]

T1 sequence (P22629 25-183): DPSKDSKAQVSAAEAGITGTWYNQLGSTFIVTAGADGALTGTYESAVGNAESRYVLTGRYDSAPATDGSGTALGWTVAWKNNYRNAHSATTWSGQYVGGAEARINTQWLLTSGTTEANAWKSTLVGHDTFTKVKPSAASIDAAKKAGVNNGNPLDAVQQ

## CSCC[C@@H]1NC(=O)[C@@H]2CCCN2C(=O)[C@H](Cc2c[nH]cn2)NC(=O)[C@H](CO)NC(=O)[C@@H](NC(=O)[C@H](C)N)C[S][Bi]2[S]C[C@@H](C(N)=O)NC(=O)[C@@H]3CCCN3C(=O)[C@H](Cc3ccccc3)NC(=O)CNC(=O)[C@H](CCC(=O)O)NC(=O)[C@H](C[S]2)NC1=O [1b]
SPR
  affinity towards streptavidin (in words): micromolar affinity
SPR, 0.390625 μM peptide
  Response: 6.1348 RU and 7.3042 RU
SPR, 0.78125 μM peptide
  Response: 7.9335 RU and 9.6048 RU
SPR, 1.5625 μM peptide
  Response: 11.7844 RU and 13.9912 RU
SPR, 3.125 μM peptide
  Response: 18.5476 RU and 21.5419 RU
SPR, 6.25 μM peptide
  Response: 29.9992 RU and 34.3112 RU
SPR, 12.5 μM peptide
  Response: 48.2716 RU and 55.717 RU
SPR, 25 μM peptide
  Response: 75.0467 RU and 86.4584 RU
SPR, 50 μM peptide
  Response: 95.3416 RU and 109.542 RU
SPR, 100 μM peptide
  Response: 110.889 RU and 126.3 RU

## C[C@H](N)C(=O)N[C@H]1C[S][Bi]2[S]C[C@@H](C(N)=O)NC(=O)[C@H](C)NC(=O)[C@H](C)NC(=O)[C@H](C)NC(=O)[C@H](CCC(=O)O)NC(=O)[C@H](C[S]2)NC(=O)[C@H](CCC(N)=O)NC(=O)[C@@H]2CCCN2C(=O)[C@H](Cc2c[nH]cn2)NC(=O)[C@@H]2CCCN2C1=O [2b]
SPR
  affinity towards streptavidin (in words): micromolar affinity
SPR, 0.390625 μM peptide
  Response: 13.0345 RU and 9.7931 RU
SPR, 0.78125 μM peptide
  Response: 13.307 RU and 10.0327 RU
SPR, 1.5625 μM peptide
  Response: 13.7466 RU and 10.2315 RU
SPR, 3.125 μM peptide
  Response: 15.583 RU and 11.4763 RU
SPR, 6.25 μM peptide
  Response: 24.2151 RU and 19.0135 RU
SPR, 12.5 μM peptide
  Response: 41.2334 RU and 33.5268 RU
SPR, 25 μM peptide
  Response: 50.6436 RU and 38.7895 RU
SPR, 50 μM peptide
  Response: 52.9652 RU and 37.872 RU
SPR, 100 μM peptide
  Response: 63.2365 RU and 47.0629 RU
SPR, 20 °C, single-cycle kinetics, 1b, 2b, 3a, 4a n = 2 (mean ± SD), 2, 3, 3b, 4b n = 1
  Kd: 7.4 µM
  more active than linear counterpart: approximately 200 times

## C[C@H](N)C(=O)N[C@H]1CS[As]2SC[C@@H](C(N)=O)NC(=O)[C@H](C)NC(=O)[C@@H]3CCCN3C(=O)[C@H](CCC(=O)O)NC(=O)[C@H]([C@@H](C)O)NC(=O)[C@H](CS2)NC(=O)[C@H](CC(N)=O)NC(=O)[C@H](CCC(N)=O)NC(=O)[C@@H]2CCCN2C(=O)[C@H](Cc2c[nH]cn2)NC1=O [3a]
  Kd: 11.7 µM
  more active than linear counterpart: approximately 80 times
SPR
  affinity towards streptavidin (in words): micromolar affinity
SPR, 0.390625 μM peptide
  Response: 3.2004 RU and 3.5032 RU
SPR, 0.78125 μM peptide
  Response: 4.9583 RU and 6.3102 RU
SPR, 1.5625 μM peptide
  Response: 9.0442 RU and 11.2377 RU
SPR, 3.125 μM peptide
  Response: 17.2093 RU and 20.7499 RU
SPR, 6.25 μM peptide
  Response: 31.5997 RU and 35.2522 RU
SPR, 12.5 μM peptide
  Response: 49.5222 RU and 52.7774 RU
SPR, 25 μM peptide
  Response: 65.4485 RU and 68.0889 RU
SPR, 50 μM peptide
  Response: 75.5589 RU and 77.8751 RU

## C[C@H](N)C(=O)N[C@H]1C[S][Bi]2[S]C[C@@H](C(N)=O)NC(=O)[C@H](C)NC(=O)[C@@H]3CCCN3C(=O)[C@H](CCC(=O)O)NC(=O)[C@H]([C@@H](C)O)NC(=O)[C@H](C[S]2)NC(=O)[C@H](CC(N)=O)NC(=O)[C@H](CCC(N)=O)NC(=O)[C@@H]2CCCN2C(=O)[C@H](Cc2c[nH]cn2)NC1=O [3b]
SPR
  affinity towards streptavidin (in words): two-digit micromolar dissociation constants
SPR, 0.78125 μM peptide
  Response: 7.812 RU
SPR, 1.5625 μM peptide
  Response: 10.9116 RU
SPR, 3.125 μM peptide
  Response: 21.8994 RU
SPR, 6.25 μM peptide
  Response: 58.4112 RU
SPR, 12.5 μM peptide
  Response: 130.364 RU
SPR, 25 μM peptide
  Response: 206.319 RU
SPR, 50 μM peptide
  Response: 242.538 RU
SPR, 100 μM peptide
  Response: 254.246 RU
SPR, 200 μM peptide
  Response: 258.218 RU

## CC(C)[C@@H]1NC(=O)[C@H](CCC(N)=O)NC(=O)[C@@H]2CCCN2C(=O)[C@H](Cc2c[nH]cn2)NC(=O)[C@@H](NC(=O)[C@H](C)N)CS[As]2SC[C@@H](C(N)=O)NC(=O)[C@H](CCC(=O)O)NC(=O)[C@H]([C@@H](C)O)NC(=O)[C@@H]3CCCN3C(=O)[C@H](CO)NC(=O)[C@H](CS2)NC1=O [4a]
  Kd: 42.8 ± 3.5 µM
SPR
  affinity towards streptavidin (in words): micromolar affinity
SPR, 0.390625 μM peptide
  Response: 3.3313 RU and 3.9342 RU
SPR, 0.78125 μM peptide
  Response: 3.4046 RU and 4.4109 RU
SPR, 1.5625 μM peptide
  Response: 4.0632 RU and 5.3459 RU
SPR, 3.125 μM peptide
  Response: 6.3333 RU and 7.9821 RU
SPR, 6.25 μM peptide
  Response: 11.621 RU and 13.3151 RU
SPR, 12.5 μM peptide
  Response: 22.2246 RU and 23.8712 RU
SPR, 25 μM peptide
  Response: 39.0098 RU and 40.7076 RU
SPR, 50 μM peptide
  Response: 57.9196 RU and 59.6228 RU
SPR, 100 μM peptide
  Response: 73.3509 RU and 75.0552 RU

## CC(C)[C@@H]1NC(=O)[C@H](CCC(N)=O)NC(=O)[C@@H]2CCCN2C(=O)[C@H](Cc2c[nH]cn2)NC(=O)[C@@H](NC(=O)[C@H](C)N)C[S][Bi]2[S]C[C@@H](C(N)=O)NC(=O)[C@H](CCC(=O)O)NC(=O)[C@H]([C@@H](C)O)NC(=O)[C@@H]3CCCN3C(=O)[C@H](CO)NC(=O)[C@H](C[S]2)NC1=O [4b]
SPR
  affinity towards streptavidin (in words): two-digit micromolar dissociation constants
SPR, 0.78125 μM peptide
  Response: 5.1388 RU
SPR, 1.5625 μM peptide
  Response: 8.1368 RU
SPR, 3.125 μM peptide
  Response: 20.2314 RU
SPR, 6.25 μM peptide
  Response: 72.2878 RU
SPR, 12.5 μM peptide
  Response: 222.296 RU
SPR, 25 μM peptide
  Response: 413.089 RU
SPR, 50 μM peptide
  Response: 508.05 RU
SPR, 100 μM peptide
  Response: 531.655 RU
SPR, 200 μM peptide
  Response: 538.328 RU

## C[C@H](N)C(=O)N[C@@H](CS)C(=O)N1CCC[C@H]1C(=O)N[C@@H](Cc1c[nH]cn1)C(=O)N1CCC[C@H]1C(=O)N[C@@H](CCC(N)=O)C(=O)N[C@@H](CS)C(=O)N[C@@H](CCC(=O)O)C(=O)N[C@@H](C)C(=O)N[C@@H](C)C(=O)N[C@@H](C)C(=O)N[C@@H](CS)C(N)=O [compound 2] (H-ACPHPQCEAAAC-NH2)
  Kd: 1520 µM
SPR
  affinity of linear versus bicyclic peptide (in words): two orders of magnitude lower affinity
SPR, 15.625 μM peptide
  Response: 3.2958 RU
SPR, 31.25 μM peptide
  Response: 3.9468 RU
SPR, 62.5 μM peptide
  Response: 5.3014 RU
SPR, 125 μM peptide
  Response: 8.119 RU
SPR, 250 μM peptide
  Response: 13.0777 RU
SPR, 500 μM peptide
  Response: 20.3557 RU
SPR, 1000 μM peptide
  Response: 32.6253 RU
SPR, 2000 μM peptide
  Response: 47.8172 RU
SPR, 4000 μM peptide
  Response: 62.2756 RU

## C[C@H](N)C(=O)N[C@@H](CS)C(=O)N[C@@H](Cc1c[nH]cn1)C(=O)N1CCC[C@H]1C(=O)N[C@@H](CCC(N)=O)C(=O)N[C@@H](CC(N)=O)C(=O)N[C@@H](CS)C(=O)N[C@H](C(=O)N[C@@H](CCC(=O)O)C(=O)N1CCC[C@H]1C(=O)N[C@@H](C)C(=O)N[C@@H](CS)C(N)=O)[C@@H](C)O [compound 3] (H-ACHPQNCTEPAC-NH2)
  Kd: 927 µM
SPR
  affinity of linear versus bicyclic peptide (in words): two orders of magnitude lower affinity
SPR, 11.7188 μM peptide
  Response: 4.8115 RU
SPR, 23.4375 μM peptide
  Response: 6.9877 RU
SPR, 46.875 μM peptide
  Response: 10.9154 RU
SPR, 93.75 μM peptide
  Response: 18.7272 RU
SPR, 187.5 μM peptide
  Response: 34.0455 RU
SPR, 375 μM peptide
  Response: 61.2377 RU
SPR, 750 μM peptide
  Response: 109.838 RU
SPR, 1500 μM peptide
  Response: 163.522 RU
SPR, 3000 μM peptide
  Response: 172.646 RU
